Where “and” joins values, the source holds several entries; their conditions need not be identical. Equal entries are not always repeated. Inconclusive results and toxic doses are left out. Cut-off read from the data, not from the text of the source: active = T/C of 150% or more; inactive = T/C below 125%.
Tested on: L1210 leukemia ip in BDF1 mice, survival T/C
Assay: NCI In Vivo Anticancer Drug Screen. Data for tumor model L1210 Leukemia (intraperitoneal) in B6D2F1 (BDF1) mice
Details: endpoint: mean survival time, higher = longer survival
In short: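 Tumor was transplanted into mice, which were then dosed with test compound or vehicle alone. Survival was recorded for each group, and the treated figure was expressed relative to the control figure.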

[1] = dose: 5.0 mg/kg/injection, schedule: Q01DX001 (ip), vehicle: carboxymethylcellulose (CMC)
[2] = dose: 10.0 mg/kg/injection, schedule: Q01DX001 (ip), vehicle: carboxymethylcellulose (CMC)
[3] = dose: 20.0 mg/kg/injection, schedule: Q01DX001 (ip), vehicle: carboxymethylcellulose (CMC)
[4] = dose: 40.0 mg/kg/injection, schedule: Q01DX001 (ip), vehicle: carboxymethylcellulose (CMC)
[5] = dose: 100.0 mg/kg/injection, schedule: Q01DX009 (ip), vehicle: Klucel (hydroxypropylcellulose) (HPC)
[6] = dose: 100.0 mg/kg/injection, schedule: Q04DX003 (ip), vehicle: Klucel (hydroxypropylcellulose) (HPC)
[7] = dose: 200.0 mg/kg/injection, schedule: Q01DX009 (ip), vehicle: Klucel (hydroxypropylcellulose) (HPC)
[8] = dose: 400.0 mg/kg/injection, schedule: Q01DX009 (ip), vehicle: Klucel (hydroxypropylcellulose) (HPC)
[9] = dose: 400.0 mg/kg/injection, schedule: Q04DX003 (ip), vehicle: Klucel (hydroxypropylcellulose) (HPC)
[10] = dose: 100.0 mg/kg/injection, schedule: Q01DX009 (ip), vehicle: saline
[11] = dose: 200.0 mg/kg/injection, schedule: Q01DX009 (ip), vehicle: saline
[12] = dose: 400.0 mg/kg/injection, schedule: Q01DX009 (ip), vehicle: saline
[13] = dose: 50.0 mg/kg/injection, schedule: Q01DX009 (ip), vehicle: saline with Tween-80
[14] = dose: 100.0 mg/kg/injection, schedule: Q01DX009 (ip), vehicle: saline with Tween-80
[15] = dose: 100.0 mg/kg/injection, schedule: Q01DX001 (ip), vehicle: saline
[16] = dose: 200.0 mg/kg/injection, schedule: Q01DX001 (ip), vehicle: saline
[17] = dose: 100.0 mg/kg/injection, schedule: Q04DX003 (ip), vehicle: saline with Tween-80
[18] = dose: 200.0 mg/kg/injection, schedule: Q04DX003 (ip), vehicle: saline with Tween-80
[19] = dose: 400.0 mg/kg/injection, schedule: Q04DX003 (ip), vehicle: saline with Tween-80
[20] = dose: 200.0 mg/kg/injection, schedule: Q04DX003 (ip), vehicle: Klucel (hydroxypropylcellulose) (HPC)
[21] = dose: 25.0 mg/kg/injection, schedule: Q04DX003 (ip), vehicle: saline with Tween-80
[22] = dose: 50.0 mg/kg/injection, schedule: Q04DX003 (ip), vehicle: saline with Tween-80
[23] = dose: 100.0 mg/kg/injection, schedule: Q04DX003 (ip), vehicle: saline
[24] = dose: 400.0 mg/kg/injection, schedule: Q04DX003 (ip), vehicle: saline

Measured: T/C

CCc1ccc(/C=C/c2ccc[nH]2)[n+](C)c1
inactive: [1] 94 % of control | [2] 94 % of control | [3] 89 % of control | [4] 96 % of control | dose: 80.0 mg/kg/injection, schedule: Q01DX001 (ip), vehicle: carboxymethylcellulose (CMC) 91 % of control

CC12CCCCC1SC(F)(F)C2(F)F (stereo not drawn)
inactive: dose: 12.5 mg/kg/injection, schedule: Q01DX009 (ip), vehicle: saline with Tween-80 95 % of control | dose: 25.0 mg/kg/injection, schedule: Q01DX009 (ip), vehicle: saline with Tween-80 98 % of control

O=[N+]([O-])c1ccccc1N=N/C(Cc1ccccc1)=N\Nc1ccccc1
inactive: dose: 50.0 mg/kg/injection, schedule: Q01DX009 (ip), vehicle: Klucel (hydroxypropylcellulose) (HPC) 92 % of control | [5] 92 % of control | [6] 89 % of control | [7] 93 % of control | [8] 94 % of control | [9] 92 % of control

CC(N)(CO)C(=O)O (stereo not drawn)
inactive: [10] 100 % of control | [11] 105 % of control | [12] 107 % of control

CCCCOC(=O)/C=C\C(=O)NC(N)=O
inactive: dose: 31.0 mg/kg/injection, schedule: Q01DX Z (ip), vehicle: methylcellulose (MC) 98 % of control | dose: 51.0 mg/kg/injection, schedule: Q01DX Z (ip), vehicle: methylcellulose (MC) 101 % of control

Nc1ccc2nc3ccc(=O)cc-3n(-c3ccccc3)c2c1
inactive: dose: 0.5 mg/kg/injection, schedule: Q01DX Z (ip), vehicle: methylcellulose (MC) 108 % of control | dose: 0.9 mg/kg/injection, schedule: Q01DX Z (ip), vehicle: methylcellulose (MC) 96 % of control and 103 % of control | dose: 1.0 mg/kg/injection, schedule: Q01DX Z (ip), vehicle: methylcellulose (MC) 112 % of control | dose: 1.4 mg/kg/injection, schedule: Q01DX Z (ip), vehicle: methylcellulose (MC) 109 % of control and 110 % of control | dose: 2.0 mg/kg/injection, schedule: Q01DX Z (ip), vehicle: methylcellulose (MC) 116 % of control | dose: 2.1 mg/kg/injection, schedule: Q01DX Z (ip), vehicle: methylcellulose (MC) 107 % of control and 119 % of control | dose: 3.2 mg/kg/injection, schedule: Q01DX Z (ip), vehicle: methylcellulose (MC) 105 % of control and 122 % of control | [1] 96 % of control | [2] 105 % of control | [3] 111 % of control | [4] 113 % of control

Cc1cc(C)[nH]n1
inactive: [10] 103 % of control | [11] 104 % of control | [12] 100 % of control

O=C1C(=O)c2c3ccccc3cc3cccc1c23
inactive: [13] 88 % of control | [14] 91 % of control

CCCCC#C/C=C/CCCC
inactive: [13] 95 % of control | [14] 100 % of control | dose: 200.0 mg/kg/injection, schedule: Q01DX009 (ip), vehicle: saline with Tween-80 100 % of control

CC1OC1C(=O)Sc1ccccc1 (stereo not drawn)
inactive: dose: 25.0 mg/kg/injection, schedule: Q04DX003 (ip), vehicle: Klucel (hydroxypropylcellulose) (HPC) 100 % of control | dose: 50.0 mg/kg/injection, schedule: Q04DX003 (ip), vehicle: Klucel (hydroxypropylcellulose) (HPC) 103 % of control | [6] 93 % of control and 86 % of control

Nc1ccc(N)cc1 (tested in a mixture with another compound)
inactive: dose: 50.0 mg/kg/injection, schedule: Q01DX009 (ip), vehicle: DMSO 103 % of control | dose: 100.0 mg/kg/injection, schedule: Q01DX009 (ip), vehicle: DMSO 91 % of control | dose: 100.0 mg/kg/injection, schedule: Q04DX003 (ip), vehicle: DMSO 91 % of control | dose: 200.0 mg/kg/injection, schedule: Q04DX003 (ip), vehicle: DMSO 94 % of control

CSc1nc(F)nc2c1ncn2C1OC(CO)C(O)C1O (stereo not drawn)
inactive: [15] 88 % of control | [16] 100 % of control

COc1ccc(COC2C(O)C(CO)OC2n2cnc3c(N)ncnc32)cc1 (stereo not drawn)
inactive: dose: 100.0 mg/kg/injection, schedule: Q01DX005 (ip), vehicle: saline 92 % of control | dose: 200.0 mg/kg/injection, schedule: Q01DX005 (ip), vehicle: saline 94 % of control

COc1cc(-c2cnc(N)nc2N)cc(OC)c1OC
inactive: [17] 97 % of control | [18] 103 % of control | [19] 95 % of control

Cc1cc(C)cc(OC(=O)Nc2ccccc2Cl)c1
inactive: [5] 88 % of control | [6] 98 % of control | [7] 92 % of control | [20] 98 % of control | [8] 86 % of control | [9] 98 % of control

CS(=O)(=O)C1(S(C)(=O)=O)Cc2ccccc2C1
inactive: [17] 91 % of control | [18] 92 % of control | [19] 100 % of control

COc1ccc(CC(=O)NNC(=O)C2(C(C)C)OC3(O)CCCCCN3C2=O)cc1OC (stereo not drawn)
inactive: dose: 12.5 mg/kg/injection, schedule: Q04DX003 (ip), vehicle: saline with Tween-80 101 % of control | [21] 92 % of control | [22] 101 % of control | [17] 90 % of control

O=C(O)C(C(=O)O)C1Cc2cccc3cccc1c23 (stereo not drawn)
inactive: [21] 96 % of control | [22] 98 % of control | [17] 100 % of control

O=C(O)/C(=C/c1ccccc1)c1ccccc1
inactive: dose: 100.0 mg/kg/injection, schedule: Q04DX002 (ip), vehicle: saline with Tween-80 95 % of control and 96 % of control | dose: 200.0 mg/kg/injection, schedule: Q04DX002 (ip), vehicle: saline with Tween-80 96 % of control and 88 % of control

CCOC(=O)Nc1cc(NCC(O)CN(C)c2ccccc2)c([N+](=O)[O-])c(N)n1 (stereo not drawn)
inactive: dose: 100.0 mg/kg/injection, schedule: Q01DX001 (ip), vehicle: carboxymethylcellulose (CMC) 95 % of control | dose: 200.0 mg/kg/injection, schedule: Q01DX001 (ip), vehicle: carboxymethylcellulose (CMC) 95 % of control | dose: 400.0 mg/kg/injection, schedule: Q01DX001 (ip), vehicle: carboxymethylcellulose (CMC) 92 % of control

Cn1c[n+](C)ccc1=O
inactive: dose: 100.0 mg/kg/injection, schedule: Q01DX009 (ip), vehicle: water 87 % of control | dose: 100.0 mg/kg/injection, schedule: Q04DX003 (ip), vehicle: water 111 % of control | dose: 200.0 mg/kg/injection, schedule: Q01DX009 (ip), vehicle: water 104 % of control | dose: 200.0 mg/kg/injection, schedule: Q04DX003 (ip), vehicle: water 106 % of control | dose: 400.0 mg/kg/injection, schedule: Q04DX003 (ip), vehicle: water 111 % of control

CN(C)c1ccc(/C=C2\C=Cc3ccccc32)c(F)c1
inactive: [5] 98 % of control | [6] 96 % of control | [7] 101 % of control | [20] 93 % of control | [8] 92 % of control | [9] 96 % of control

CCCCSc1ncc(C)c(N(C)C)n1
inactive: dose: 25.0 mg/kg/injection, schedule: Q01DX Z (ip), vehicle: methylcellulose (MC) 92 % of control | dose: 50.0 mg/kg/injection, schedule: Q01DX Z (ip), vehicle: methylcellulose (MC) 89 % of control

CC(=O)Oc1ccccc1C(C)=O
inactive: [5] 97 % of control | [6] 96 % of control | [7] 97 % of control | [20] 98 % of control | [9] 104 % of control

CC(=O)OC1CC2(Cl)C(Cl)=C(Cl)C1(Cl)C2(Cl)Cl (stereo not drawn)
inactive: [15] 100 % of control | [23] 89 % of control | [16] 98 % of control | dose: 400.0 mg/kg/injection, schedule: Q01DX001 (ip), vehicle: saline 98 % of control | [24] 103 % of control

CCC(N)(C(=O)O)C1CCCCC1 (stereo not drawn)
inactive: [23] 96 % of control | dose: 200.0 mg/kg/injection, schedule: Q04DX003 (ip), vehicle: saline 94 % of control | [24] 93 % of control

Source: PubChem BioAssay AID248 (DTP/NCI, 2004)
